In this assay the target is T1, calcitonin receptors (CTR) (Homo sapiens, UniProt P30988).
T1 construct: expressed in transfected cells; host or cells: cAMP Hunter HEK293-CT-R Gs cell line (HEK293, stably transfected)
T1 sequence (P30988 25-474): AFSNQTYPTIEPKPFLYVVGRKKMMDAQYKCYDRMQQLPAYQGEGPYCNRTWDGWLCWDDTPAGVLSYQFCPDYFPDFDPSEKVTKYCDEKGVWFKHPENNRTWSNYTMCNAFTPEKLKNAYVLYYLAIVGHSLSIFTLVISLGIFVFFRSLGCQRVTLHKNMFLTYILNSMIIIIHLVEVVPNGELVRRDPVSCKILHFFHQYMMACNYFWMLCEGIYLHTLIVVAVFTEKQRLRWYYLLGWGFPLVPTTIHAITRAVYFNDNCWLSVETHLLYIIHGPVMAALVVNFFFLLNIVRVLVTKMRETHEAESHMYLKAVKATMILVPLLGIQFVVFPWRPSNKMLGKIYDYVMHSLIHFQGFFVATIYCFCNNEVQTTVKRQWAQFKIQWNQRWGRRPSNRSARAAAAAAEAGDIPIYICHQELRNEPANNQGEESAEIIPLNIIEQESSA
Briefly: cAMP determination (HTRF, cAMP Dynamic 2 Kit) in cAMP Hunter HEK293-CT-R Gs cell line. The following applies: for Relative Activity%: relative to Salmon Calcitonin = 100.0, HEK293 CT-R cAMP; for EC50: HEK293 cell line stably expressing CT-R, intracellular cAMP, HTRF. Type of assay: cell-based. From the text:
Upon activation by a ligand, Gas-coupled GPCRs can upregulate intracellular cAMP level, and cAMP, as a second messenger, can mediate a series of cellular responses. The cAMP Hunter HEK293-CT-R Gs cell line, which overexpresses Gas-coupled calcitonin receptors (CTR), was used. The binding of calcitonin (or an analog thereof) to the overexpressed CTR upregulates intracellular cAMP level. The amount of intracellular cAMP produced after activation by the calcitonin (or an analog thereof) was detected using a cAMP Dynamic 2 Kit to evaluate the biological activity of the calcitonin (or an analog thereof). HEK293 cell line stably expressing CT-R was used. Stably transfected cells were stimulated with various concentrations of agonists. The time-resolved fluorescence resonance energy signal from the cells after stimulation with different doses was measured using HTRF technology, from which the biological activity of the agonist was subsequently calculated.
In general terms: In TR-FRET formats the signal depends on donor and acceptor labels being close together.

In general, EC50 refers to the concentration giving half of the maximal effect.

With `CC(C)C[C@H](NC(=O)[C@H](CCCCN)NC(=O)CNC(=O)[C@H](CC(C)C)NC(=O)[C@@H](NC(=O)[C@@H]1CSSC[C@H](N)C(=O)N[C@@H](CO)C(=O)N[C@@H](CC(N)=O)C(=O)N[C@@H](CC(C)C)C(=O)N[C@@H](CO)C(=O)N[C@@H]([C@@H](C)O)C(=O)N1)C(C)C)C(=O)N[C@@H](CO)C(=O)N[C@@H](CCC(N)=O)C(=O)N[C@@H](CCC(=O)O)C(=O)N[C@@H](CC(C)C)C(=O)N[C@@H](Cc1c[nH]cn1)C(=O)N[C@@H](CCCCNC(=O)COCCNC(=O)CC[C@H](NC(=O)CCCCCCCCCCCCCCCCCCC(=O)O)C(=O)O)C(=O)N[C@@H](CC(C)C)C(=O)N[C@@H](CCC(N)=O)C(=O)N[C@H](C(=O)N[C@@H](Cc1ccc(O)cc1)C(=O)N1CCC[C@H]1C(=O)N[C@@H](CCCNC(=N)N)C(=O)N[C@H](C(=O)N[C@@H](CC(N)=O)C(=O)N[C@H](C(=O)NCC(=O)N[C@@H](CO)C(=O)NCC(=O)N[C@H](C(=O)N1CCC[C@H]1C(N)=O)[C@@H](C)O)[C@@H](C)O)[C@@H](C)O)[C@@H](C)O` [Compound 1, Cys-Ser-Asn-Leu-Ser-Thr-Cys-Val-Leu-Gly-Lys-Leu-Ser-Gln-Glu-Leu-His-Lys(PEG1CH2CO-γGlu-eicosanedioic acid)-Leu-Gln-Thr-Tyr-Pro-Arg-Thr-Asn-Thr-Gly-Ser-Gly-Thr-Pro-NH2], the “Relative Activity%” value came out at 206.5%.

As for `CC(C)C[C@H](NC(=O)[C@H](CCCCN)NC(=O)CNC(=O)[C@H](CC(C)C)NC(=O)[C@@H](NC(=O)[C@@H]1CSSC[C@H](N)C(=O)N[C@@H](CO)C(=O)N[C@@H](CC(N)=O)C(=O)N[C@@H](CC(C)C)C(=O)N[C@@H](CO)C(=O)N[C@@H]([C@@H](C)O)C(=O)N1)C(C)C)C(=O)N[C@@H](CO)C(=O)N[C@@H](CCC(N)=O)C(=O)N[C@@H](CCC(=O)O)C(=O)N[C@@H](CC(C)C)C(=O)N[C@@H](Cc1c[nH]cn1)C(=O)N[C@@H](CCCCNC(=O)COCCOCCNC(=O)CC[C@H](NC(=O)CCCCCCCCCCCCCCCCCCC(=O)O)C(=O)O)C(=O)N[C@@H](CC(C)C)C(=O)N[C@@H](CCC(N)=O)C(=O)N[C@H](C(=O)N[C@@H](Cc1ccc(O)cc1)C(=O)N1CCC[C@H]1C(=O)N[C@@H](CCCNC(=N)N)C(=O)N[C@H](C(=O)N[C@@H](CC(N)=O)C(=O)N[C@H](C(=O)NCC(=O)N[C@@H](CO)C(=O)NCC(=O)N[C@H](C(=O)N1CCC[C@H]1C(N)=O)[C@@H](C)O)[C@@H](C)O)[C@@H](C)O)[C@@H](C)O` [Compound 2, Cys-Ser-Asn-Leu-Ser-Thr-Cys-Val-Leu-Gly-Lys-Leu-Ser-Gln-Glu-Leu-His-Lys(PEG2CH2CO-γGlu-eicosanedioic acid)-Leu-Gln-Thr-Tyr-Pro-Arg-Thr-Asn-Thr-Gly-Ser-Gly-Thr-Pro-NH2], the “Relative Activity%” value is recorded as 231.7%.

For `CC(C)C[C@H](NC(=O)[C@H](CCCCN)NC(=O)CNC(=O)[C@H](CC(C)C)NC(=O)[C@@H](NC(=O)[C@@H]1CSSC[C@H](N)C(=O)N[C@@H](CO)C(=O)N[C@@H](CC(N)=O)C(=O)N[C@@H](CC(C)C)C(=O)N[C@@H](CO)C(=O)N[C@@H]([C@@H](C)O)C(=O)N1)C(C)C)C(=O)N[C@@H](CO)C(=O)N[C@@H](CCC(N)=O)C(=O)N[C@@H](CCC(=O)O)C(=O)N[C@@H](CC(C)C)C(=O)N[C@@H](Cc1c[nH]cn1)C(=O)N[C@@H](CCCCNC(=O)COCCOCCOCCNC(=O)CC[C@H](NC(=O)CCCCCCCCCCCCCCCCCCC(=O)O)C(=O)O)C(=O)N[C@@H](CC(C)C)C(=O)N[C@@H](CCC(N)=O)C(=O)N[C@H](C(=O)N[C@@H](Cc1ccc(O)cc1)C(=O)N1CCC[C@H]1C(=O)N[C@@H](CCCNC(=N)N)C(=O)N[C@H](C(=O)N[C@@H](CC(N)=O)C(=O)N[C@H](C(=O)NCC(=O)N[C@@H](CO)C(=O)NCC(=O)N[C@H](C(=O)N1CCC[C@H]1C(N)=O)[C@@H](C)O)[C@@H](C)O)[C@@H](C)O)[C@@H](C)O` [Compound 3, Cys-Ser-Asn-Leu-Ser-Thr-Cys-Val-Leu-Gly-Lys-Leu-Ser-Gln-Glu-Leu-His-Lys(PEG3CH2CO-yGlu-eicosanedioic acid)-Leu-Gln-Thr-Tyr-Pro-Arg-Thr-Asn-Thr-Gly-Ser-Gly-Thr-Pro-NH2], the “Relative Activity%” value came to 256.8%.

As for `CC(C)C[C@H](NC(=O)[C@H](CCCCN)NC(=O)CNC(=O)[C@H](CC(C)C)NC(=O)[C@@H](NC(=O)[C@@H]1CSSC[C@H](N)C(=O)N[C@@H](CO)C(=O)N[C@@H](CC(N)=O)C(=O)N[C@@H](CC(C)C)C(=O)N[C@@H](CO)C(=O)N[C@@H]([C@@H](C)O)C(=O)N1)C(C)C)C(=O)N[C@@H](CO)C(=O)N[C@@H](CCC(N)=O)C(=O)N[C@@H](CCC(=O)O)C(=O)N[C@@H](CC(C)C)C(=O)N[C@@H](Cc1c[nH]cn1)C(=O)N[C@@H](CCCCNC(=O)COCCOCCOCCOCCNC(=O)CC[C@H](NC(=O)CCCCCCCCCCCCCCCCCCC(=O)O)C(=O)O)C(=O)N[C@@H](CC(C)C)C(=O)N[C@@H](CCC(N)=O)C(=O)N[C@H](C(=O)N[C@@H](Cc1ccc(O)cc1)C(=O)N1CCC[C@H]1C(=O)N[C@@H](CCCNC(=N)N)C(=O)N[C@H](C(=O)N[C@@H](CC(N)=O)C(=O)N[C@H](C(=O)NCC(=O)N[C@@H](CO)C(=O)NCC(=O)N[C@H](C(=O)N1CCC[C@H]1C(N)=O)[C@@H](C)O)[C@@H](C)O)[C@@H](C)O)[C@@H](C)O` [Compound 4, Cys-Ser-Asn-Leu-Ser-Thr-Cys-Val-Leu-Gly-Lys-Leu-Ser-Gln-Glu-Leu-His-Lys(PEG4CH2CO-yGlu-eicosanedioic acid)-Leu-Gln-Thr-Tyr-Pro-Arg-Thr-Asn-Thr-Gly-Ser-Gly-Thr-Pro-NH2], the “Relative Activity%” value is given as 316.7%.

In the case of `CC(C)C[C@H](NC(=O)[C@H](CCCCN)NC(=O)CNC(=O)[C@H](CC(C)C)NC(=O)[C@@H](NC(=O)[C@@H]1CSSC[C@H](N)C(=O)N[C@@H](CO)C(=O)N[C@@H](CC(N)=O)C(=O)N[C@@H](CC(C)C)C(=O)N[C@@H](CO)C(=O)N[C@@H]([C@@H](C)O)C(=O)N1)C(C)C)C(=O)N[C@@H](CO)C(=O)N[C@@H](CCC(N)=O)C(=O)N[C@@H](CCC(=O)O)C(=O)N[C@@H](CC(C)C)C(=O)N[C@@H](Cc1c[nH]cn1)C(=O)N[C@@H](CCCCNC(=O)COCCOCCOCCOCCOCCOCCNC(=O)CC[C@H](NC(=O)CCCCCCCCCCCCCCCCCCC(=O)O)C(=O)O)C(=O)N[C@@H](CC(C)C)C(=O)N[C@@H](CCC(N)=O)C(=O)N[C@H](C(=O)N[C@@H](Cc1ccc(O)cc1)C(=O)N1CCC[C@H]1C(=O)N[C@@H](CCCNC(=N)N)C(=O)N[C@H](C(=O)N[C@@H](CC(N)=O)C(=O)N[C@H](C(=O)NCC(=O)N[C@@H](CO)C(=O)NCC(=O)N[C@H](C(=O)N1CCC[C@H]1C(N)=O)[C@@H](C)O)[C@@H](C)O)[C@@H](C)O)[C@@H](C)O` [Compound 6, Cys-Ser-Asn-Leu-Ser-Thr-Cys-Val-Leu-Gly-Lys-Leu-Ser-Gln-Glu-Leu-His-Lys(PEG6CH2CO-yGlu-eicosanedioic acid)-Leu-Gln-Thr-Tyr-Pro-Arg-Thr-Asn-Thr-Gly-Ser-Gly-Thr-Pro-NH2], the “Relative Activity%” value was 172.7%.

In the case of `CC(C)C[C@H](NC(=O)[C@H](CCCCN)NC(=O)CNC(=O)[C@H](CC(C)C)NC(=O)[C@@H](NC(=O)[C@@H]1CSSC[C@H](N)C(=O)N[C@@H](CO)C(=O)N[C@@H](CC(N)=O)C(=O)N[C@@H](CC(C)C)C(=O)N[C@@H](CO)C(=O)N[C@@H]([C@@H](C)O)C(=O)N1)C(C)C)C(=O)N[C@@H](CO)C(=O)N[C@@H](CCC(N)=O)C(=O)N[C@@H](CCC(=O)O)C(=O)N[C@@H](CC(C)C)C(=O)N[C@@H](Cc1c[nH]cn1)C(=O)N[C@@H](CCCCNC(=O)CNC(=O)[C@H](CO)NC(=O)CNC(=O)[C@H](CO)NC(=O)CC[C@H](NC(=O)CCCCCCCCCCCCCCCCCCC(=O)O)C(=O)O)C(=O)N[C@@H](CC(C)C)C(=O)N[C@@H](CCC(N)=O)C(=O)N[C@H](C(=O)N[C@@H](Cc1ccc(O)cc1)C(=O)N1CCC[C@H]1C(=O)N[C@@H](CCCNC(=N)N)C(=O)N[C@H](C(=O)N[C@@H](CC(N)=O)C(=O)N[C@H](C(=O)NCC(=O)N[C@@H](CO)C(=O)NCC(=O)N[C@H](C(=O)N1CCC[C@H]1C(N)=O)[C@@H](C)O)[C@@H](C)O)[C@@H](C)O)[C@@H](C)O` [Compound 7], the EC50 worked out at 4.4 pM.

For `CC(C)C[C@H](NC(=O)[C@H](CCCCN)NC(=O)CNC(=O)[C@H](CC(C)C)NC(=O)[C@@H](NC(=O)[C@@H]1CSSC[C@H](N)C(=O)N[C@@H](CO)C(=O)N[C@@H](CC(N)=O)C(=O)N[C@@H](CC(C)C)C(=O)N[C@@H](CO)C(=O)N[C@@H]([C@@H](C)O)C(=O)N1)C(C)C)C(=O)N[C@@H](CO)C(=O)N[C@@H](CCC(N)=O)C(=O)N[C@@H](CCC(=O)O)C(=O)N[C@@H](CC(C)C)C(=O)N[C@@H](Cc1c[nH]cn1)C(=O)N[C@@H](CCCCNC(=O)CNC(=O)CNC(=O)[C@H](CO)NC(=O)CNC(=O)[C@H](CO)NC(=O)CNC(=O)CC[C@H](NC(=O)CCCCCCCCCCCCCCCCCCC(=O)O)C(=O)O)C(=O)N[C@@H](CC(C)C)C(=O)N[C@@H](CCC(N)=O)C(=O)N[C@H](C(=O)N[C@@H](Cc1ccc(O)cc1)C(=O)N1CCC[C@H]1C(=O)N[C@@H](CCCNC(=N)N)C(=O)N[C@H](C(=O)N[C@@H](CC(N)=O)C(=O)N[C@H](C(=O)NCC(=O)N[C@@H](CO)C(=O)NCC(=O)N[C@H](C(=O)N1CCC[C@H]1C(N)=O)[C@@H](C)O)[C@@H](C)O)[C@@H](C)O)[C@@H](C)O` [Compound 8], the EC50 stood at 3.7 pM.

(Values after patent EP4691482A1, “LONG-ACTING CALCITONIN ANALOG” (Chengdu Aoda Biotechnology Co., Ltd., priority 2023, dated 2024).)
